“Also recorded” adds a separate entry of the source. Values belong to the compound of their own block, whether it stands above or below them.
Experiments:
Format in all cases: cell-based, chicken
AvBD9 mRNA expression = experiment: RT-qPCR of AvBD9 mRNA expression in HTC macrophage cells; settings: for synergy in AvBD9 induction between HMTi and HDACi: with butyrate or mocetinostat, 24 h (FIG. 7, Panel C); for induction of AvBD9 gene expression / increase in AvBD9 expression, combination with mocetinostat: 24 h (FIG. 7, Panel D); for increase in AvBD9 expression, combination with mocetinostat: 5 μM compound in combination with 2.5 μM mocetinostat; for synergy with butyrate in AvBD9 mRNA expression: indicated concentrations in combination with 2 mM butyrate, 24 h (FIG. 4)
Experimental: (§1) Culture and stimulation of macrophages. Two different chicken macrophage cell lines, HTC (24) and HD11 (25), were kindly provided by Dr. Narayan C. Rath and Dr. Hyun Lillehoj of USDA-ARS and maintained in RPMI 1640 containing 10% heat-inactivated FBS, 100 U/ml penicillin, and 100 μg/ml streptomycin and subcultured every 3-4 days. After overnight seeding at 1.5×10^6 cells/well in 6-well cell culture plates, cells were treated with different concentrations of each compound for 24 h or with the indicated concentration of each compound for various lengths of time for dose-response and time-course experiments, respectively. To study the synergy between HMTi/DNMTi and HDACi, different concentrations of an HMTi or DNMTi were added to the cells in the presence or absence of an HDACi for 24 h, followed by RNA isolation and HDP gene expression analysis as described below. HTC cells were also stimulated with butyrate, BIX01294, or their combination for 24 h, followed by 3-h stimulation with 10 ng/ml LPS and subsequent expression analysis.
(§2) Total RNA extraction and gene expression analysis. Total RNA was extracted using RNAzol (Molecular Biology Research Center, Cincinnati, OH) according to the manufacturer's protocol. Gene expression was performed using reverse transcription-quantitative PCR (RT-qPCR) as previously described (27-29). Reverse transcription was performed with 300 ng of total RNA and Maxima® First Strand cDNA Synthesis Kit (ThermoFisher Scientific, Pittsburgh, PA). The cDNA was then diluted 10-fold with RNase-free water prior to real-time PCR using QuantiTect SYBR® Green PCR Kit (Qiagen, Valencia, CA) in 10-μl reactions using primers specific for HDP, barrier function, and inflammatory cytokine genes as described (27, 29, 30). PCR was run in CFX Connect Real-Time PCR System (Bio-Rad, Hercules, CA) using the following program: 95° C. for 10 min, followed by 40 cycles of 94° C. for 15 sec, 55° C. for 20 sec, and 72° C. for 30 sec. The specificity of PCR reactions was confirmed by the melting curve analysis. The glyceraldehyde-3-phosphate dehydrogenase (GAPDH) gene was used as the reference for data normalization. The fold changes in gene expression in the cells treated with individual compounds or in combinations were calculated relative to the cells treated with an equal volume of RPMI 1640 or DMSO using the ΔΔCt method (31).

AvBD9 gene promoter = experiment: HTC/AvBD9-luc luciferase reporter assay; settings: for activation of the AvBD9 gene promoter (relative luciferase activity): compound alone, different concentrations, 24 h (FIG. 2, Panel A); for synergy in luciferase activity with butyrate: different concentrations in combination with 2 mM butyrate, 24 h (FIG. 3)
Experimental: Culture and stimulation of a stable HTC/AvBD9-luc luciferase reporter cell line. A stable HTC/AvBD9-luc cell line was generated by cloning a 2.0-Kb AvBD9 gene promoter fragment into a lentiviral luciferase reporter vector, pGreenFire1-mCMV-Puro (System Biosciences, Palo Alto, CA) and then transfected into HTC cells as previously described (22). The stable cell line was maintained in RPMI 1640 containing 10% heat-inactivated FBS, 100 U/ml penicillin, 100 μg/mL streptomycin, and 0.5 μg/mL puromycin and subcultured every 3-4 days. To measure transcriptional activation of the AvBD9 gene promoter in response to different epigenetic compounds, cells were seeded at 4×10^4 cells/well in white 96-well tissue culture plates and stimulated in duplicate with different compounds individually or in combination for 24 h. An equal amount of a solvent was applied as a negative control. Luciferase activity was measured using STEADY-GLO® Luciferase Assay System (Promega, Madison, WI) on an L-Max II luminescence microplate reader (Molecular Devices, Sunnyvale, CA). Cell viabilities were assessed by adding alamarBlue Reagent (ThermoFisher, Waltham, MA) to cell culture 4 h before luciferase assay. Relative luciferase activity was determined for each well after normalization to the cell viability as previously described (22).

CLDN1 = experiment: RT-qPCR of CLDN1 (claudin 1) in HTC cells; settings: 24 h (FIG. 8, Panel F)
Experimental: as §1, §2

AvBD4 = experiment: RT-qPCR of AvBD4 in HD11 macrophages; settings: HD11 cells, 5 μM compound with 2 mM butyrate, 24 h (FIG. 6, Panel C)
Experimental: (§3) Culture and stimulation of macrophages. Two different chicken macrophage cell lines, HTC (24) and HD11 (25), were kindly provided by Dr. Narayan C. Rath and Dr. Hyun Lillehoj of USDA-ARS and maintained in RPMI 1640 containing 10% heat-inactivated FBS, 100 U/ml penicillin, and 100 μg/ml streptomycin and subcultured every 3-4 days. After overnight seeding at 1.5×10^6 cells/well in 6-well cell culture plates, cells were treated with different concentrations of each compound for 24 h or with the indicated concentration of each compound for various lengths of time for dose-response and time-course experiments, respectively. […]
(§4) Total RNA extraction and gene expression analysis. […] Gene expression was performed using reverse transcription-quantitative PCR (RT-qPCR) as previously described (27-29). […] The cDNA was then diluted 10-fold with RNase-free water prior to real-time PCR using QuantiTect SYBR® Green PCR Kit (Qiagen, Valencia, CA) in 10-μl reactions using primers specific for HDP, barrier function, and inflammatory cytokine genes as described (27, 29, 30). […] The fold changes in gene expression in the cells treated with individual compounds or in combinations were calculated relative to the cells treated with an equal volume of RPMI 1640 or DMSO using the ΔΔCt method (31).

AvBD10 = experiment: RT-qPCR of AvBD10 in HD11 macrophages; settings: HD11 cells, 5 μM compound with 2 mM butyrate, 24 h (FIG. 6, Panel D)
Experimental: as §3, §4

AvBD1 = experiment: RT-qPCR of AvBD1 in HD11 macrophages; settings: HD11 cells, 5 μM compound with 2 mM butyrate, 24 h (FIG. 6, Panel B)
Experimental: as §3, §4

AvBD9 = experiment: RT-qPCR of AvBD9 in HD11 macrophages; settings: HD11 cells, 5 μM compound with 2 mM butyrate, 24 h (FIG. 6, Panel A)
Experimental: as §3, §4

IL-8 = experiment: RT-qPCR of IL-8 in HTC cells with or without LPS
Experimental: as §1, §2

IL-1β = experiment: RT-qPCR of IL-1β in HTC cells with or without LPS
Experimental: as §1, §2

SMILES: COc1cc2c(cc1OCCCN1CCCC1)N=C(N)C21CCC1 [A-366]
- synergy in AvBD9 induction between HMTi and HDACi (AvBD9 mRNA expression): marked synergy

SMILES: Nc1ncn([C@@H]2O[C@H](CO)[C@@H](O)[C@H]2O)c(=O)n1 [AZA, 5-azacytidine]
- induction of AvBD9 gene expression (AvBD9 mRNA expression; 5 μM compound alone): 3 fold
- increase in AvBD9 expression, combination with mocetinostat (AvBD9 mRNA expression): 1,925 fold

- activation of the AvBD9 gene promoter (relative luciferase activity) (AvBD9 gene promoter): weak activator
SMILES: Cc1cc(Nc2ccc(NC(=O)c3ccc(Nc4ccnc5ccccc45)cc3)cc2)nc(N)n1 [SGI-1027]
- induction of AvBD9 gene expression (AvBD9 mRNA expression; 5 μM compound alone): 4 fold
- increase in AvBD9 expression, combination with mocetinostat (AvBD9 mRNA expression): 747 fold
- additional increase in AvBD9 of the butyrate combination over compound alone (AvBD9 mRNA expression; 10 µM compound + 2 mM butyrate versus 10 µM compound alone): 8 fold
- induction of AvBD9 mRNA expression (AvBD9 mRNA expression; 10 μM compound alone, 24 h (FIG. 2, Panel B)): 51 fold
- AvBD9 expression augmented (AvBD9 mRNA expression; 10 µM compound alone, 24 h (FIG. 4, Panel C)): 51 fold
- AvBD9 induction when combined with butyrate (AvBD9 mRNA expression; 10 µM compound combined with 2 mM butyrate, 24 h (FIG. 4, Panel C)): 411 fold
- synergy with butyrate in AvBD9 mRNA expression (AvBD9 mRNA expression): concentration-dependent increase; also recorded: synergize
- synergy in luciferase activity with butyrate (AvBD9 gene promoter): no synergy

- activation of the AvBD9 gene promoter (relative luciferase activity) (AvBD9 gene promoter): concentration-dependent activation
SMILES: CCCc1cc(C)[nH]c(=O)c1CNC(=O)c1cc(-c2ccc(N3CCN(C(C)C)CC3)nc2)cc2c1cnn2C(C)C [UNC1999]
- additional increase in AvBD9 expression of the butyrate combination over compound alone (AvBD9 mRNA expression; 20 μM compound + 2 mM butyrate versus 20 μM compound alone): 14 fold
- increase in AvBD9 mRNA expression (AvBD9 mRNA expression; 20 μM compound alone, 24 h (FIG. 2, Panel B), peak): 259 fold
- induction of AvBD9 expression (AvBD9 mRNA expression; 20 μM compound alone, 24 h (FIG. 4, Panels A, B)): 324 fold
- increase in AvBD9 expression, combination with butyrate (AvBD9 mRNA expression; 20 μM compound in combination with 2 mM butyrate, 24 h (FIG. 4, Panels A, B)): 4,470 fold
- synergy with butyrate in AvBD9 mRNA expression (AvBD9 mRNA expression): concentration-dependent increase
- synergy in AvBD9 induction between HMTi and HDACi (AvBD9 mRNA expression): marked synergy
- CLDN1 induction, combination with mocetinostat (CLDN1; 5 μM UNC1999 + 2.5 μM mocetinostat): synergistically induced
- CLDN1 induction, combination with butyrate (CLDN1; 5 μM UNC1999 + 2 mM butyrate): synergistically induced
- synergy in luciferase activity with butyrate (AvBD9 gene promoter): marked dose-dependent increase in the synergy
- AvBD4 induction, combination with butyrate (AvBD4): synergistically induced, albeit at lower magnitudes
- AvBD10 induction, combination with butyrate (AvBD10): synergistically induced, albeit at lower magnitudes
- AvBD1 induction, combination with butyrate (AvBD1): synergistically induced, albeit at lower magnitudes
- synergy in AvBD9 induction with butyrate (AvBD9): drastic synergy

SMILES: CCCC(=O)[O-].[Na+] [butyrate, Sodium butyrate]
- induction of AvBD9 expression (AvBD9 mRNA expression; 2 mM butyrate alone, 24 h (FIG. 4, Panel A)): 27 fold
- effect on LPS-induced IL-8 expression (IL-8; compound alone 24 h, then 10 ng/ml LPS 3 h (FIG. 8, Panel E)): potentiated
- activity in inducing gene expression of IL-8 (IL-8; compound alone (2 mM butyrate or 5 μM BIX01294), without LPS (FIG. 8, Panel E)): no or weak activity
- effect on LPS-induced IL-1β expression (IL-1β; compound alone 24 h, then 10 ng/ml LPS 3 h (FIG. 8, Panel D)): suppressed
- activity in inducing gene expression of IL-1β (IL-1β; compound alone (2 mM butyrate or 5 μM BIX01294), without LPS (FIG. 8, Panel D)): no or weak activity

SMILES: Nc1ccccc1NC(=O)c1ccc(CNc2nccc(-c3cccnc3)n2)cc1 [mocetinostat]
- induction of AvBD9 gene expression (AvBD9 mRNA expression; 2.5 μM mocetinostat alone): 152 fold

Source: patent publication US20250144056A1, “ANTIMICROBIAL HOST DEFENSE PEPTIDE-INDUCING COMPOSITIONS AND METHODS OF PRODUCTION AND USE THEREOF” (Board of Regents for the Oklahoma Agricultural and …, priority 2022, published 2025)
